Assays:
[1] = system: HepG2 cells; conditions: cell lines such as HepG2; cited from earlier work
[2] = system: HepG2 cells; alpha 1-antichymotrypsin synthesis; conditions: lower doses of IL-6; cited from earlier work
[3] = system: HepG2 cells; alpha 1-antichymotrypsin synthesis; test: alpha1-antichymotrypsin; format: cell-based, human; conditions: HepG2, 6 h, 37°C
[4] = system: HepG2 cells; complement C3 synthesis; test: C3 synthesis in HepG2 cells; format: cell-based, human; conditions: for time at which increase in C3 synthesis becomes evident: C5a or FMLP 10 nM, HepG2, 37°C, Fig. 6; for effect on C3 synthesis: HepG2, 6 h, 37°C, 1 and 10 nM, Fig. 7
[5] = system: HepG2 cells; complement Bf synthesis; test: Complement Bf synthesis in HepG2 cells; format: cell-based, human; conditions: HepG2, 6 h, 37°C; 1 and 10 nM; Fig. 7
[6] = system: HepG2 cells; C5 synthesis; test: C5 synthesis in HepG2 cells; format: cell-based, human; conditions: HepG2, 6 h, 37°C; 1 and 10 nM; Fig. 7
[7] = system: HepG2 cells; alpha1-AT synthesis; test: alpha1-antitrypsin; format: cell-based, human; conditions: HepG2, 6 h, 37°C; 1 and 10 nM; Fig. 7
[8] = system: neutrophils; conditions: cited from earlier work
[9] = system: HepG2 cells; acute phase protein synthesis; test: Synthesis of acute phase proteins in HepG2 cells; format: cell-based, human; conditions: for effect on C3 and albumin synthesis at higher concentrations: higher concentrations of chemotactic peptides, data not shown
[10] = system: HepG2 cells; fibrinogen and C4 synthesis; test: Fibrinogen and C4 synthesis in HepG2 cells; format: cell-based, human; conditions: data not shown
[11] = system: HepG2 cells; serum amyloid A or C-reactive protein synthesis; test: Serum amyloid A and C-reactive protein synthesis in HepG2 cells; format: cell-based, human; conditions: data not shown
[12] = system: HepG2 cells; albumin synthesis; test: Albumin synthesis in HepG2 cells; format: cell-based, human; conditions: for time at which decrease in albumin synthesis becomes evident: C5a or FMLP 10 nM, Fig. 6
[13] = system: HepG2 cells; transferrin synthesis; test: Transferrin synthesis in HepG2 cells; format: cell-based, human; conditions: HepG2, 6 h, 37°C; 1 and 10 nM; Fig. 7
[14] = target: T1, FMLPR in HepG2 cells (Homo sapiens, UniProt P21462); test: Binding of radioiodinated FMLP analogue to HepG2 cells
T1 sequence (P21462 1-350): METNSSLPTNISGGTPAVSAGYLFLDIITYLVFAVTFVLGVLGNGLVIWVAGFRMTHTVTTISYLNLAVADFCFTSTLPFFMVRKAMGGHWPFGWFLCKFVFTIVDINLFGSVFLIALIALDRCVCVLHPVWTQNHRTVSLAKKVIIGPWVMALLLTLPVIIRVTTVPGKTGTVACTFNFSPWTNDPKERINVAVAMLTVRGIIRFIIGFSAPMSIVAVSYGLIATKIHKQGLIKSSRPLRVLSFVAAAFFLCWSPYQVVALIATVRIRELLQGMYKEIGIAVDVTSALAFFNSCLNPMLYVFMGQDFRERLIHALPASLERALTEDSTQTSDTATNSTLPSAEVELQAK

[15] = system: C5a and FMLP receptor-activated signal transduction pathways; conditions: background statement, no reference given; cited from earlier work
[16] = system: human endothelial cells; conditions: cited from earlier work
[17] = system: C5aR in HepG2 cells; conditions: cited from earlier work
[18] = system: vascular tissue, smooth muscle, mast cells; conditions: cited from earlier work
[19] = HepG2, 10 h, IL-1β 10 ng/ml + IL-6 10 ng/ml as positive control, Fig. 5
[20] = HepG2, 37°C, 10 h, serum-free, C5a or FMLP 1 and 10 nM, Fig. 5
[21] = HepG2, 6 h, 37°C, 1 and 10 nM, Fig. 7

IL-6: prototype acute phase cytokine IL-6
changes in expression of acute phase genes [1]: changes in expression of at least several if not many acute phase genes
effect on alpha1-ACT synthesis at lower doses [2]: con- centration dependent at lower doses
concentration of maximal effect on alpha1-ACT synthesis ([3]; Fig. 9 right): 0.2 /xg/ml
effect on alpha1-ACT synthesis ([3]; IL-6, several concentrations from 0.2 μg/ml, Fig. 9 right): increase

IL-I~: cytokine (interleukin-1 beta; scan error)
changes in expression of acute phase genes [1]: changes in expression of at least several if not many acute phase genes

formyl-methionyl-leucyl-phenylalanine [FMLP, reference compound]
time at which increase in C3 synthesis becomes evident [4]: 6 h
effect on C3 synthesis [4]: increases
magnitude of effect on C3 synthesis vs combined effect of IL-1β and IL-6 [4, 19]: less than but comparable in magnitude
effect on complement Bf synthesis [5]: increases
effect on C5 synthesis [6]: no effect
effect on alpha1-AT synthesis [7]: no effect
effect on neutrophil chemotaxis at supersaturating concentrations [8]: abrogated at supersaturating concentra- tions
neutrophil program activated [8]: directed cell migration, release of active oxy- gen intermediates, and release of proteolytic and phlogistic granular contents
alpha1-ACT synthesis at higher (supersaturating) concentrations ([3]; FMLP above 20 nM, Fig. 9 left): returns to control levels
effect on alpha1-ACT synthesis ([3]; 1 and 10 nM, Fig. 7): increases
lowest concentration with evident effect on synthesis of acute phase proteins ([9]; abstract): 1 nM
effect on C3 and albumin synthesis at higher concentrations [9]: dissipation of the effect
effect on fibrinogen and C4 synthesis [10]: minimally and inconsistently increased
induction of serum amyloid A or C-reactive protein synthesis [11]: no evidence for induc- tion
time at which decrease in albumin synthesis becomes evident ([12]; HepG2, 37°C): 6 h
effect on albumin synthesis [12, 20]: concentration-dependent decreases in synthesis of albumin
effect on albumin synthesis [12, 21]: decreases
concentration at which effect on albumin biosynthesis was first evident ([12]; HepG2, 10 h, Fig. 5): 1 nM
magnitude of effect on albumin synthesis vs combination of IL-1β and IL-6 [12, 19]: less than but comparable
effect on transferrin synthesis [13]: decreases

formylNLe-Leu-Phe-NLe-Tyr-Lys [radioiodinated FMLP analogue]
binding of radioiodinated FMLP analogue to HepG2 cells ([14]; HepG2, 2 h at 4°C, Fig. 3A): specific and saturable binding
plasma membrane receptors per cell (R) ([14]; Scatchard plot, HepG2, 2 h at 4°C): ~6,000 plasma membrane receptors per cell
Kd ([14]; Scatchard plot, HepG2 monolayers, 2 h at 4°C, DMEM, 10 mM Hepes, pH 7.2, 1 mg/ml BSA, 0.05% Tween 80, nonspecific: 200-fold (Fig. 3: 250-fold) molar excess unlabeled FMLP, gamma counting): ~2.47 nM

leukemia inhibitory factor: cytokine
changes in expression of acute phase genes [1]: changes in expression of at least several if not many acute phase genes

pertussis toxin
inhibition of C5a/FMLP receptor signal transduction [15]: is inhibited by pertussis toxin

B1: C5a: 11,200-D cationic glycopeptide from the first 74 residues of the C5 alpha chain; recombinant human C5a (Sigma) used (protein, UniProt P01031 678-751, looked up)
C5a anaphylatoxin: TLQKKIEEIAAKYKHSVVKKCCYDGACVNNDETCEQRAARISLGPRCIKAFTECCVVASQLRANISHKDMQLGR
modifications: C5a anaphylatoxin
time at which increase in C3 synthesis becomes evident [4]: 6 h
effect on C3 synthesis [4]: increases
effect on complement Bf synthesis [5]: increases
effect on C5 synthesis [6]: no effect
effect on alpha1-AT synthesis [7]: no effect
effect on neutrophil chemotaxis at supersaturating concentrations [8]: abrogated at supersaturating concentra- tions
neutrophil activities mediated [8]: chemotactic ac- tivity, phagocytic activity, release of active oxygen inter- mediates, release of granular enzymes, and increase in adhesion/aggregationproperties in neutrophils
effect on alpha1-ACT synthesis ([3]; 1 and 10 nM, Fig. 7): increases
binding to human endothelial cells [16]: binds to human endothelial cells
effect on C3 and albumin synthesis at higher concentrations [9]: dissipation of the effect
effect on fibrinogen and C4 synthesis [10]: minimally and inconsistently increased
induction of serum amyloid A or C-reactive protein synthesis [11]: no evidence for induc- tion
time at which decrease in albumin synthesis becomes evident ([12]; HepG2, 37°C): 6 h
effect on albumin synthesis [12, 20]: concentration-dependent decreases in synthesis of albumin
effect on albumin synthesis [12, 21]: decreases
inhibition of binding of 125I-C5a to HepG2 cells [17]: inhibit binding
histamine release from mast cells [18]: releaseofhistamine from mast cells
smooth muscle contraction [18]: smooth muscle contraction
vascular permeability [18]: increasedvascularpermeability
vasodilatation [18]: vasodilatation
effect on transferrin synthesis [13]: decreases

B2: IL-11: cytokine (protein, UniProt P20809 22-199, looked up)
Interleukin-11: PGPPPGPPRVSPDPRAELDSTVLLTRSLLADTRQLAAQLRDKFPADGDHNLDSLPTLAMSAGALGALQLPGVLTRLRADLLSYLRHVQWLRRAGGSSLKTLEPELGTLQARLDRLLRRLQLLMSRLALPQPPPDPPAPPLAPPSSAWGGIRAAHAILGGLHLTLDWAVRGLLLLKTRL
changes in expression of acute phase genes [1]: changes in expression of at least several if not many acute phase genes

B3: IL-lc~: cytokine (interleukin-1 alpha; scan error) (protein, UniProt P01583 113-271, looked up)
Interleukin-1 alpha: SAPFSFLSNVKYNFMRIIKYEFILNDALNQSIIRANDQYLTAAALHNLDEAVKFDMGAYKSSKDDAKITVILRISKTQLYVTAQDEDQPVLLKEMPEIPKTITGSETNLLFFWETHGTKNYFTSVAHPNLFIATKQDYWVCLAGGPPSITDFQILENQA
changes in expression of acute phase genes [1]: changes in expression of at least several if not many acute phase genes

B4: oncostain M: cytokine (protein, UniProt P13725 26-221, looked up)
Oncostatin-M: AAIGSCSKEYRVLLGQLQKQTDLMQDTSRLLDPYIRIQGLDVPKLREHCRERPGAFPSEETLRGLGRRGFLQTLNATLGCVLHRLADLEQRLPKAQDLERSGLNIEDLEKLQMARPNILGLRNNIYCMAQLLDNSDTAEPTKAGRGASQPPTPTPASDAFQRKLEGCRFLHGYHRFMHSVGRVFSKWGESPNRSRR
changes in expression of acute phase genes [1]: changes in expression of at least several if not many acute phase genes

— publication PMC2192098 (The Journal of Experimental Medicine, 1995)
